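GI50 marks 50% less growth. TGI denotes the concentration required for complete inhibition of growth.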
Tests used:
Assay in all cases: growth of human tumour cells (NCI), 384-well format
[1] = tested on: HS 578T breast
[2] = tested on: MOLT-4 leukemia
[3] = tested on: RPMI-8226 leukemia
[4] = tested on: RXF 393 renal
[5] = tested on: T-47D breast
[6] = tested on: UACC-257 melanoma
[7] = tested on: TK-10 renal
[8] = tested on: OVCAR-8 ovarian
[9] = tested on: HOP-92 NSCLC
[10] = tested on: PC-3 prostate
[11] = tested on: HOP-62 NSCLC
[12] = tested on: DU-145 prostate
[13] = tested on: ACHN renal
[14] = tested on: SN12C renal
[15] = tested on: MALME-3M melanoma
[16] = tested on: MDA-MB-435 melanoma
[17] = tested on: A498 renal
[18] = tested on: COLO 205 colon
[19] = tested on: BT-549 breast
[20] = tested on: U251 glioblastoma
[21] = tested on: OVCAR-3 ovarian
[22] = tested on: HCT-15 colon
[23] = tested on: OVCAR-4 ovarian
[24] = tested on: UACC-62 melanoma
[25] = tested on: SF-539 CNS
[26] = tested on: MDA-MB-231 breast
[27] = tested on: SK-MEL-5 melanoma
[28] = tested on: CCRF-CEM leukemia
[29] = tested on: NCI-H460 NSCLC
[30] = tested on: A549 NSCLC
[31] = tested on: HT29 colon
[32] = tested on: MCF7 breast
[33] = tested on: SR leukemia
[34] = tested on: IGROV1 ovarian
[35] = tested on: SK-MEL-28 melanoma
[36] = tested on: SF-295 CNS
[37] = tested on: CAKI-1 renal
[38] = tested on: 786-0 renal
[39] = tested on: M14 melanoma
[40] = tested on: SK-MEL-2 melanoma
[41] = tested on: SK-OV-3 ovarian
[42] = tested on: HCC-2998 colon
[43] = tested on: KM12 colon
[44] = tested on: OVCAR-5 ovarian
[45] = tested on: EKVX NSCLC
[46] = tested on: HL-60(TB) leukemia
[47] = tested on: NCI-H322M lung
[48] = tested on: SW-620 colon
[49] = tested on: NCI-H522 lung
[50] = tested on: MDA-MB-468 breast
[51] = tested on: NCI-H226 lung
[52] = tested on: SF-268 CNS
[53] = tested on: SNB-19 CNS
[54] = tested on: NCI-H23 lung
[55] = tested on: NCI/ADR-RES ovarian

## Cn1cc(C[C@@H](N)C(=O)O)c2ccccc21
[1]
  GI50: > 100 µM
  TGI: > 100 µM
[2]
  GI50: > 100 µM
  TGI: > 100 µM
[3]
  GI50: > 100 µM
  TGI: > 100 µM
[4]
  GI50: > 100 µM
  TGI: > 100 µM
[5]
  GI50: > 100 µM
  TGI: > 100 µM
[6]
  GI50: > 100 µM
  TGI: > 100 µM
[7]
  GI50: > 100 µM
  TGI: > 100 µM
[8]
  GI50: > 100 µM
  TGI: > 100 µM
[9]
  GI50: > 100 µM
  TGI: > 100 µM
[10]
  GI50: > 100 µM
  TGI: > 100 µM
[11]
  GI50: > 100 µM
  TGI: > 100 µM
[12]
  GI50: > 100 µM
  TGI: > 100 µM
[13]
  GI50: > 100 µM
  TGI: > 100 µM
[14]
  GI50: > 100 µM
  TGI: > 100 µM
[15]
  GI50: > 100 µM
  TGI: > 100 µM
[16]
  GI50: > 100 µM
  TGI: > 100 µM
[17]
  GI50: > 100 µM
  TGI: > 100 µM
[18]
  GI50: > 100 µM
  TGI: > 100 µM
[19]
  GI50: > 100 µM
  TGI: > 100 µM
[20]
  GI50: > 100 µM
  TGI: > 100 µM
[21]
  GI50: > 100 µM
  TGI: > 100 µM
[22]
  GI50: > 100 µM
  TGI: > 100 µM
[23]
  GI50: > 100 µM
  TGI: > 100 µM
[24]
  GI50: > 100 µM
  TGI: > 100 µM
[25]
  GI50: > 100 µM
  TGI: > 100 µM
[26]
  GI50: > 100 µM
  TGI: > 100 µM
[27]
  GI50: > 100 µM
  TGI: > 100 µM
[28]
  GI50: > 100 µM
  TGI: > 100 µM
[29]
  GI50: > 100 µM
  TGI: > 100 µM
[30]
  GI50: > 100 µM
  TGI: > 100 µM
[31]
  GI50: > 100 µM
  TGI: > 100 µM
[32]
  GI50: > 100 µM
  TGI: > 100 µM
[33]
  GI50: > 100 µM
  TGI: > 100 µM
[34]
  GI50: > 100 µM
  TGI: > 100 µM
[35]
  GI50: > 100 µM
  TGI: > 100 µM
[36]
  GI50: > 100 µM
  TGI: > 100 µM
[37]
  GI50: > 100 µM
  TGI: > 100 µM
[38]
  GI50: > 100 µM
  TGI: > 100 µM
[39]
  GI50: > 100 µM
  TGI: > 100 µM
[40]
  GI50: > 100 µM
  TGI: > 100 µM
[41]
  GI50: > 100 µM
  TGI: > 100 µM
[42]
  GI50: > 100 µM
  TGI: > 100 µM
[43]
  GI50: > 100 µM
  TGI: > 100 µM
[44]
  GI50: > 100 µM
  TGI: > 100 µM
[45]
  GI50: > 100 µM
  TGI: > 100 µM
[46]
  GI50: > 100 µM
  TGI: > 100 µM
[47]
  GI50: > 100 µM
  TGI: > 100 µM
[48]
  GI50: > 100 µM
  TGI: > 100 µM
[49]
  GI50: > 100 µM
  TGI: > 100 µM
[50]
  GI50: > 100 µM
  TGI: > 100 µM
[51]
  GI50: > 100 µM
  TGI: > 100 µM
[52]
  GI50: > 100 µM
  TGI: > 100 µM
[53]
  GI50: > 100 µM
  TGI: > 100 µM
[54]
  GI50: > 100 µM
  TGI: > 100 µM
[55]
  GI50: > 100 µM
  TGI: > 100 µM
